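Following 48 hours of exposure in 96-well plates, responses at five concentrations were used to interpolate endpoints linearly. Definition used: TGI = concentration required for complete inhibition of growth.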
How the values were obtained:
Assay in all cases: growth of human tumour cells (NCI), 48 h
COLO 205 colon = test system: COLO 205 colon
HOP-18 NSCLC = test system: HOP-18 NSCLC
IGROV1 ovarian = test system: IGROV1 ovarian
XF 498 CNS = test system: XF 498 CNS
NCI-H23 lung = test system: NCI-H23 lung
SK-OV-3 ovarian = test system: SK-OV-3 ovarian
MALME-3M melanoma = test system: MALME-3M melanoma
SNB-75 CNS = test system: SNB-75 CNS
KM20L2 colon = test system: KM20L2 colon
M19-MEL melanoma = test system: M19-MEL melanoma
UACC-257 melanoma = test system: UACC-257 melanoma
EKVX NSCLC = test system: EKVX NSCLC
HOP-62 NSCLC = test system: HOP-62 NSCLC
SK-MEL-2 melanoma = test system: SK-MEL-2 melanoma
OVCAR-8 ovarian = test system: OVCAR-8 ovarian
786-0 renal = test system: 786-0 renal
KM12 colon = test system: KM12 colon
NCI-H522 lung = test system: NCI-H522 lung
RXF-631 renal = test system: RXF-631 renal
SW-620 colon = test system: SW-620 colon
HT29 colon = test system: HT29 colon
SK-MEL-5 melanoma = test system: SK-MEL-5 melanoma
CAKI-1 renal = test system: CAKI-1 renal
HCC-2998 colon = test system: HCC-2998 colon
SK-MEL-28 melanoma = test system: SK-MEL-28 melanoma
RPMI-8226 leukemia = test system: RPMI-8226 leukemia
M14 melanoma = test system: M14 melanoma
OVCAR-3 ovarian = test system: OVCAR-3 ovarian
RXF 393 renal = test system: RXF 393 renal
U251 CNS = test system: U251 CNS
OVCAR-4 ovarian = test system: OVCAR-4 ovarian
TK-10 renal = test system: TK-10 renal
NCI-H226 lung = test system: NCI-H226 lung
UO-31 renal = test system: UO-31 renal
HCT-116 colon = test system: HCT-116 colon
DMS 273 small cell lung = test system: DMS 273 small cell lung
LOX IMVI melanoma = test system: LOX IMVI melanoma
NCI-H460 lung = test system: NCI-H460 lung
SR leukemia = test system: SR leukemia
SF-539 CNS = test system: SF-539 CNS
HOP-92 NSCLC = test system: HOP-92 NSCLC
ACHN renal = test system: ACHN renal
OVCAR-5 ovarian = test system: OVCAR-5 ovarian
MOLT-4 leukemia = test system: MOLT-4 leukemia
SN12C renal = test system: SN12C renal
LXFL 529 NSCLC = test system: LXFL 529 NSCLC
A549 NSCLC = test system: A549 NSCLC
UACC-62 melanoma = test system: UACC-62 melanoma
SF-295 CNS = test system: SF-295 CNS
DLD-1 colon = test system: DLD-1 colon
DMS 114 small cell lung = test system: DMS 114 small cell lung
CCRF-CEM leukemia = test system: CCRF-CEM leukemia
SF-268 CNS = test system: SF-268 CNS
A498 renal = test system: A498 renal
HCT-15 colon = test system: HCT-15 colon
HL-60(TB) leukemia = test system: HL-60(TB) leukemia
SNB-19 CNS = test system: SNB-19 CNS
K-562 leukemia = test system: K-562 leukemia
SNB-78 CNS = test system: SNB-78 CNS

## CCCCCCCCCCCCNC1(C)CNCCCNCCNCCCNC1
COLO 205 colon
  TGI: 3.2 µM
HOP-18 NSCLC
  TGI: 3.07 µM
IGROV1 ovarian
  TGI: 2.35 µM
XF 498 CNS
  TGI: 3.35 µM
NCI-H23 lung
  TGI: 3.12 µM
SK-OV-3 ovarian
  TGI: 3.21 µM
MALME-3M melanoma
  TGI: 3.47 µM
SNB-75 CNS
  TGI: 3.15 µM
KM20L2 colon
  TGI: 3.1 µM
M19-MEL melanoma
  TGI: 3.13 µM
UACC-257 melanoma
  TGI: 3.19 µM
EKVX NSCLC
  TGI: 12.8 µM
HOP-62 NSCLC
  TGI: 3.83 µM
SK-MEL-2 melanoma
  TGI: 3.34 µM
OVCAR-8 ovarian
  TGI: 2.92 µM
786-0 renal
  TGI: 3.14 µM
KM12 colon
  TGI: 2.89 µM
NCI-H522 lung
  TGI: 3.22 µM
RXF-631 renal
  TGI: 3.57 µM
SW-620 colon
  TGI: 3.27 µM
HT29 colon
  TGI: 2.95 µM
SK-MEL-5 melanoma
  TGI: 3.06 µM
CAKI-1 renal
  TGI: 3.63 µM
HCC-2998 colon
  TGI: 3.22 µM
SK-MEL-28 melanoma
  TGI: 3.29 µM
RPMI-8226 leukemia
  TGI: 3.55 µM
M14 melanoma
  TGI: 3.21 µM
OVCAR-3 ovarian
  TGI: 3.28 µM
RXF 393 renal
  TGI: 2.93 µM
U251 CNS
  TGI: 2.3 µM
OVCAR-4 ovarian
  TGI: 3.82 µM
TK-10 renal
  TGI: 3.1 µM
NCI-H226 lung
  TGI: 3.21 µM
UO-31 renal
  TGI: 5.83 µM
HCT-116 colon
  TGI: 2.59 µM
DMS 273 small cell lung
  TGI: 1.6 µM
LOX IMVI melanoma
  TGI: 3.25 µM
NCI-H460 lung
  TGI: 2.69 µM
SR leukemia
  TGI: 3.58 µM
SF-539 CNS
  TGI: 3.29 µM
HOP-92 NSCLC
  TGI: 4.55 µM
ACHN renal
  TGI: 3.41 µM
OVCAR-5 ovarian
  TGI: 4.54 µM
MOLT-4 leukemia
  TGI: 3.05 µM
SN12C renal
  TGI: 3.05 µM
LXFL 529 NSCLC
  TGI: 3.05 µM
A549 NSCLC
  TGI: 3.2 µM
UACC-62 melanoma
  TGI: 3.25 µM
SF-295 CNS
  TGI: 2.88 µM
DLD-1 colon
  TGI: 3.07 µM

## C=CCN(N=O)C(=O)N(CCC)CCCCC(NC(C)=O)C(=O)NCc1ccccc1 (stereo not given)
COLO 205 colon
  TGI: > 100 µM
HOP-18 NSCLC
  TGI: > 100 µM
IGROV1 ovarian
  TGI: > 100 µM
XF 498 CNS
  TGI: > 100 µM
DMS 114 small cell lung
  TGI: > 100 µM
NCI-H23 lung
  TGI: > 100 µM
SK-OV-3 ovarian
  TGI: > 100 µM
MALME-3M melanoma
  TGI: > 100 µM
SNB-75 CNS
  TGI: > 100 µM
KM20L2 colon
  TGI: > 100 µM
M19-MEL melanoma
  TGI: > 100 µM
UACC-257 melanoma
  TGI: > 100 µM
EKVX NSCLC
  TGI: > 100 µM
HOP-62 NSCLC
  TGI: > 100 µM
SK-MEL-2 melanoma
  TGI: > 100 µM
OVCAR-8 ovarian
  TGI: > 100 µM
786-0 renal
  TGI: > 100 µM
CCRF-CEM leukemia
  TGI: > 100 µM
KM12 colon
  TGI: > 100 µM
NCI-H522 lung
  TGI: > 100 µM
RXF-631 renal
  TGI: > 100 µM
SW-620 colon
  TGI: > 100 µM
HT29 colon
  TGI: 83.6 µM
SK-MEL-5 melanoma
  TGI: > 100 µM
CAKI-1 renal
  TGI: > 100 µM
SF-268 CNS
  TGI: > 100 µM
A498 renal
  TGI: > 100 µM
HCT-15 colon
  TGI: > 100 µM
SK-MEL-28 melanoma
  TGI: > 100 µM
RPMI-8226 leukemia
  TGI: > 100 µM
M14 melanoma
  TGI: > 100 µM
OVCAR-3 ovarian
  TGI: > 100 µM
HL-60(TB) leukemia
  TGI: 54.4 µM
RXF 393 renal
  TGI: > 100 µM
U251 CNS
  TGI: > 100 µM
OVCAR-4 ovarian
  TGI: > 100 µM
TK-10 renal
  TGI: > 100 µM
NCI-H226 lung
  TGI: > 100 µM
UO-31 renal
  TGI: > 100 µM
DMS 273 small cell lung
  TGI: > 100 µM
LOX IMVI melanoma
  TGI: > 100 µM
NCI-H460 lung
  TGI: > 100 µM
SNB-19 CNS
  TGI: > 100 µM
SF-539 CNS
  TGI: > 100 µM
HOP-92 NSCLC
  TGI: > 100 µM
ACHN renal
  TGI: > 100 µM
OVCAR-5 ovarian
  TGI: > 100 µM
MOLT-4 leukemia
  TGI: > 100 µM
SN12C renal
  TGI: > 100 µM
K-562 leukemia
  TGI: > 100 µM
LXFL 529 NSCLC
  TGI: > 100 µM
A549 NSCLC
  TGI: > 100 µM
UACC-62 melanoma
  TGI: > 100 µM
SF-295 CNS
  TGI: > 100 µM

## CCN(CC)c1ccc2c(c1)N=C1N=CC=CN1C2(c1ccc(N(C)C)cc1)c1ccc(N(C)C)cc1
COLO 205 colon
  TGI: 6.53 µM
HOP-18 NSCLC
  TGI: 12 µM
IGROV1 ovarian
  TGI: 26.9 µM
XF 498 CNS
  TGI: 12.6 µM
NCI-H23 lung
  TGI: 20.2 µM
SK-OV-3 ovarian
  TGI: 19.1 µM
MALME-3M melanoma
  TGI: 27.4 µM
SNB-75 CNS
  TGI: 24.4 µM
KM20L2 colon
  TGI: 10.2 µM
M19-MEL melanoma
  TGI: 19.3 µM
UACC-257 melanoma
  TGI: 19.5 µM
EKVX NSCLC
  TGI: 23.8 µM
HOP-62 NSCLC
  TGI: 24.3 µM
SK-MEL-2 melanoma
  TGI: 31.1 µM
OVCAR-8 ovarian
  TGI: 17.5 µM
786-0 renal
  TGI: 24.1 µM
CCRF-CEM leukemia
  TGI: 23.5 µM
KM12 colon
  TGI: 15.6 µM
NCI-H522 lung
  TGI: 5.12 µM
RXF-631 renal
  TGI: 19.4 µM
HT29 colon
  TGI: 10.6 µM
SK-MEL-5 melanoma
  TGI: 26.7 µM
CAKI-1 renal
  TGI: 25.2 µM
SF-268 CNS
  TGI: 27.3 µM
A498 renal
  TGI: 33.3 µM
HCC-2998 colon
  TGI: 13.2 µM
HCT-15 colon
  TGI: 28.1 µM
SK-MEL-28 melanoma
  TGI: 26 µM
RPMI-8226 leukemia
  TGI: 8.1 µM
M14 melanoma
  TGI: 10.5 µM
OVCAR-3 ovarian
  TGI: 6.54 µM
HL-60(TB) leukemia
  TGI: 3.3 µM
RXF 393 renal
  TGI: 23.2 µM
U251 CNS
  TGI: 16 µM
TK-10 renal
  TGI: 28.6 µM
NCI-H226 lung
  TGI: 27.2 µM
UO-31 renal
  TGI: 22 µM
HCT-116 colon
  TGI: 11.8 µM
DMS 273 small cell lung
  TGI: > 100 µM
LOX IMVI melanoma
  TGI: 18.4 µM
NCI-H460 lung
  TGI: 22.2 µM
SNB-19 CNS
  TGI: 24 µM
SR leukemia
  TGI: 12.9 µM
SF-539 CNS
  TGI: 28.6 µM
HOP-92 NSCLC
  TGI: 8.6 µM
ACHN renal
  TGI: 16.1 µM
OVCAR-5 ovarian
  TGI: 27.4 µM
MOLT-4 leukemia
  TGI: 6.22 µM
SN12C renal
  TGI: 19.3 µM
K-562 leukemia
  TGI: 5.96 µM
SNB-78 CNS
  TGI: 39.5 µM
LXFL 529 NSCLC
  TGI: 12.3 µM
A549 NSCLC
  TGI: 28 µM
UACC-62 melanoma
  TGI: 24.1 µM
SF-295 CNS
  TGI: 15.6 µM
DLD-1 colon
  TGI: 17.9 µM

From PubChem BioAssay (NCI)
